Assay results: US12398121B2 (Nuvation Bio Inc., priority 2018, dated 2025)

molecular target: T1, AR in LNCaP cytosol (Homo sapiens, UniProt P10275, T878A); test: AR binding assay (3H-methyltrienolone displacement); conditions: not given
T1 construct: endogenous in cells; host or cells: LNCaP cytosol
T1 sequence (P10275 1-920 T878A): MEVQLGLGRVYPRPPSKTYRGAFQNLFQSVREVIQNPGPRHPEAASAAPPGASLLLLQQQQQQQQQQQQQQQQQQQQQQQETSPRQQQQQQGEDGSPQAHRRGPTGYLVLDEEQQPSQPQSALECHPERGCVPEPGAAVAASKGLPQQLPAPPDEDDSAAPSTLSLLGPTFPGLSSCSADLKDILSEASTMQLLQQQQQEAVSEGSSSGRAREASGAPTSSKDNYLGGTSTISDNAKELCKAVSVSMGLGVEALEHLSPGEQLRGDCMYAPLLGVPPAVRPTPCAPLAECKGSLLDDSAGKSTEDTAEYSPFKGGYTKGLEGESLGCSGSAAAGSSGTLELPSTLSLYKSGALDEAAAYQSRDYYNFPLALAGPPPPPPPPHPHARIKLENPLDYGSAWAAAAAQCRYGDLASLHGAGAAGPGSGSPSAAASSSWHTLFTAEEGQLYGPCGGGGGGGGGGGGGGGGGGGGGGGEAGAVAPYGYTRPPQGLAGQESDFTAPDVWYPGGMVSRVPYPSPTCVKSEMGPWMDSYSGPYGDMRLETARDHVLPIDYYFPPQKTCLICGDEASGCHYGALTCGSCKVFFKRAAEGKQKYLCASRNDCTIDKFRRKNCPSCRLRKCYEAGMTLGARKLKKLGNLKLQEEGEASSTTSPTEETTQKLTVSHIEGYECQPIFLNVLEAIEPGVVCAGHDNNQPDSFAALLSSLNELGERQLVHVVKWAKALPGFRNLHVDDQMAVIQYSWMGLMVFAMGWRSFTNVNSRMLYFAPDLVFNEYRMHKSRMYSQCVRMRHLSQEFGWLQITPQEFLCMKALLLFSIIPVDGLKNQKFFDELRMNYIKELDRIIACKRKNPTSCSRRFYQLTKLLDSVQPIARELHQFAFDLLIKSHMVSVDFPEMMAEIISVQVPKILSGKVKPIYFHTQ
Method: The following methods are for evaluating the in vitro biology properties of the test articles. • a. RBC HotSpot Poly(ADP-ribose) Polymerases 1 (PARP1) and Poly(ADP-ribose) Polymerases 2 (PARP2) Assays: The assay principle is radioisotope-based filter binding assay where incorporation of radioisotope-labeled NAD^+ into the substrate captured on filter is detected after washout free NAD^+. Data were analyzed using Excel and GraphPad Prism software for IC50 curve fits. Each assay was conducted with PJ34 as a positive control. • i. PARP1 assay: Human recombinant PARP1 at a final concentration of 2.5 nM was combined with histone H4 (20 μM) and test articles at various concentrations in reaction buffer (50 mM Tris-HCL, pH 8.0, 50 mM NaCl, 10 mM MgCl2, 1 mM DTT, 1% DMSO, and 20 μg/mL activated DNA). The solution was inoculated for 20 min at room temperature and the reaction initiated by adding [adenylate-^32P]-Nicotinamide Adenine Dinucleotide, ^32P-NAD^+ at a final concentration of 10 μM. After incubation for 2 hour at room temperature, the reaction mixture was filtered and washed with 0.75% phosphoric acid for radioactivity detection. • ii. PARP2 assay: Human recombinant PARP2 at a final concentration of 2.5 nM was combined with histone H3 (20 μM) and test articles at various concentrations in reaction buffer (50 mM Tris-HCL, pH 8.0, 50 mM NaCl, 10 mM MgCl2, 1 mM DTT, 1% DMSO, and 20 μg/mL activated DNA). The solution was inoculated for 20 min at room temperature and the reaction was initiated by adding [adenylate-^32P]-Nicotinamide Adenine Dinucleotide, ^32P-NAD^+ at a final concentration of 10 μM. After incubation for 2 hour at room temperature, the reaction mixture was filtered and washed with 0.75% phosphoric acid for radioactivity detection. • b. AR binding assay: AR in LNCaP cytosol was used for determining the binding affinity of test articles and the reference compound—progesterone (Sigma, Cat: E2785, St. Louis, MO). IC50s were determined using 8 concentrations/compound. Cytosol was plated at 200 μg/well (100 μL) into a 96-well conical polypropylene plate (Agilent, Cat: 5042-1385, Santa Clara, CA) and mixed with 3 μL of test compound. After adding 100 μL of ^3H-methyltrienolone (PerkinElmer, Cat: NET590250UC, San Jose, CA), the plate was sealed and shaken at 300 rpm at 4° C. for 24 hours. Post incubation, 100 μL of radioligand adsorption buffer containing 10 mM Tris-HCl, pH 7.4; 1.5 mM EDTA; 1 mM DTT; 0.25% charcoal; 0.0025% dextran was added to individual well. Plate was shaken for 15 min at 4′C followed by centrifugation at 3000 rpm for 30 min at 4° C. 150 μL of supernatant was transferred into scint-tube (PerkinElmer, Cat: 6000192) and mixed with 2 mL of Ultima Gold Cocktail (PerkinElmer, Cat: 6013329). Radioactivity was counted using a TriCarb 2910 TR scintillation counter (PerkinElmer). Inhibition of the radioactivity by test articles were calculated using the equation below: % Inhibition=(1−(Assay well−Average_LC)/(Average_HC−Average_LC))×100%.
IC50 values were calculated and graphed using the model “log(inhibitor) vs. response—Variable slope” included in GraphPad Prism 5 (San Diego, CA). The Ki values were further calculated using the equation below where [L] was the radioligand concentration (1 nM) using in this study. Kd value was 0.332 nM. Ki=IC50/(1+[L]/Kd) c. AR transactivation: Human AR cloned into a CMV vector backbone was used for the transactivation study. HEK-293 cells were plated at 80,000 cells per well of a 24 well plate in DME+5% csFBS. Twenty four hours later, the cells were transfected using Lipofectamine (Invitrogen, Carlsbad, CA) with 0.25 μg GRE-LUC, 0.01 μg CMV-LUC (renilla luciferase) and 25 ng of the AR in OPTIMEM medium. The cells were treated 24 hrs after transfection with various ligands (10^−12 to 10^−5 M final concentrations) and luciferase assay were performed 48 hours after transfection. […]

Point of comparison: C[C@](O)(COc1ccc(NCCCCCC(=O)N2CCN(C(=O)c3cc(Cc4n[nH]c(=O)c5ccccc45)ccc3F)CC2)cc1)C(=O)Nc1ccc(C#N)c(C(F)(F)F)c1 [Compound 1.83, (S)-N-(4-cyano-3-(trifluoromethyl)phenyl)-3-(4-(6-(4-(2-fluoro-5-((4-oxo-3,4-dihydrophthalazin-1-yl)methyl)benzoyl)piperazin-1-yl)-6-oxohexylamino)phenoxy)-2-hydroxy-2-methylpropanamide], Ki 139 nM. Against it:
- CC(O)(CS(=O)(=O)c1ccc(NCCn2cc(CN3CCN(C(=O)c4cc(Cc5n[nH]c(=O)c6ccccc56)ccc4F)CC3)nn2)cc1)C(=O)Nc1ccc(C#N)c(C(F)(F)F)c1 (stereo in doubt) [Compound 1.97, (S)-N-(4-cyano-3-(trifluoromethyl)phenyl)-3-(4-(2-(4-((4-(2-fluoro-5-((4-oxo-3,4-dihydrophthalazin-1-yl)methyl)benzoyl)piperazin-1-yl)methyl)-1H-1,2,3-triazol-1-yl)ethylamino)phenylsulfonyl)-2-hydroxy-2-methylpropanamide] — 3.6-fold higher, 504 nM
- C[C@]12CCC(=O)C[C@@H]1CC[C@@H]1[C@@H]2CC[C@@]2(C)[C@H]1CC[C@@]2(O)CCC(=O)N1CCN(C(=O)c2cc(Cc3n[nH]c(=O)c4ccccc34)ccc2F)CC1 (stereo in doubt) [Compound 1.117, 4-(4-fluoro-3-(4-(3-((5S,8R,9S,10S,13S,14S,17R)-17-hydroxy-10,13-dimethyl-3-oxohexadecahydro-1H-cyclopenta[a]phenanthren-17-yl)propanoyl)piperazine-1-carbonyl)benzyl)phthalazin-1(2H)-one] — 2.3-fold lower, 60 nM
- C[C@]12CCC(=O)C[C@@H]1CC[C@@H]1[C@@H]2CC[C@]2(C)[C@@H](OCCCCCC(=O)N3CCN(C(=O)c4cc(Cc5n[nH]c(=O)c6ccccc56)ccc4F)CC3)CC[C@@H]12 [Compound 1.2, 4-(3-(4-(6-(((5S,8R,9S,10S,13S,14S,17S)-10,13-dimethyl-3-oxohexadecahydro-1H-cyclopenta[a]phenanthren-17-yl)oxy)hexanoyl)piperazine-1-carbonyl)-4-fluorobenzyl)phthalazin-1(2H)-one] — 110-fold lower, 1.31 nM
- CC1(C)C(=O)N(c2ccc(C#N)c(C(F)(F)F)c2)C(=S)N1c1ccc(C(=O)NCCCCCCNCc2ccc(-c3[nH]c4cc(F)cc5c4c3CCNC5=O)cc2)c(F)c1 [Compound 1.5, 4-(3-(4-cyano-3-(trifluoromethyl)phenyl)-5,5-dimethyl-4-oxo-2-thioxoimidazolidin-1-yl)-2-fluoro-N-(6-((4-(8-fluoro-1-oxo-2,3,4,6-tetrahydro-1H-azepino[5,4,3-cd]indol-5-yl)benzyl)amino)hexyl)benzamide] — 2.1-fold higher, 291 nM
- C[C@](O)(CS(=O)(=O)c1ccc(NCCCCCC(=O)N2CCN(C(=O)c3cc(Cc4n[nH]c(=O)c5ccccc45)ccc3F)CC2)cc1)C(=O)Nc1ccc(C#N)c(C(F)(F)F)c1 [Compound 1.68, (R)-N-(4-cyano-3-(trifluoromethyl)phenyl)-3-(4-(6-(4-(2-fluoro-5-((4-oxo-3,4-dihydrophthalazin-1-yl)methyl)benzoyl)piperazin-1-yl)-6-oxohexylamino)phenylsulfonyl)-2-hydroxy-2-methylpropanamide] — 6.5-fold higher, 907 nM
- C[C@](O)(CS(=O)(=O)c1ccc(NCC(=O)N2CCN(C(=O)c3cc(Cc4n[nH]c(=O)c5ccccc45)ccc3F)CC2)cc1)C(=O)Nc1ccc(C#N)c(C(F)(F)F)c1 [Compound 1.98, (R)-N-(4-cyano-3-(trifluoromethyl)phenyl)-3-(4-(2-(4-(2-fluoro-5-((4-oxo-3,4-dihydrophthalazin-1-yl)methyl)benzoyl)piperazin-1-yl)-2-oxoethylamino)phenylsulfonyl)-2-hydroxy-2-methylpropanamide] — within 1.5-fold, 181 nM
- C[C@](O)(CS(=O)(=O)c1ccc(NCCN2CCN(C(=O)c3cc(Cc4n[nH]c(=O)c5ccccc45)ccc3F)CC2)cc1)C(=O)Nc1ccc(C#N)c(C(F)(F)F)c1 [Compound 1.99, (R)-N-(4-cyano-3-(trifluoromethyl)phenyl)-3-(4-(2-(4-(2-fluoro-5-((4-oxo-3,4-dihydrophthalazin-1-yl)methyl)benzoyl)piperazin-1-yl)ethylamino)phenylsulfonyl)-2-hydroxy-2-methylpropanamide] — within 1.5-fold, 197 nM
- C[C@]12CCC(=O)C[C@@H]1CC[C@@H]1[C@@H]2CC[C@]2(C)[C@@H](OCC(=O)N3CCN(C(=O)c4cc(Cc5n[nH]c(=O)c6ccccc56)ccc4F)CC3)CC[C@@H]12 [Compound 1.110, 4-(3-(4-(2-((5S,8R,9S,10S,13S,14S,17S)-10,13-dimethyl-3-oxohexadecahydro-1H-cyclopenta[a]phenanthren-17-yloxy)acetyl)piperazine-1-carbonyl)-4-fluorobenzyl)phthalazin-1(2H)-one] — 2.3-fold lower, 60 nM

same assay, conditions: Ki=IC50/(1+[L]/Kd), [L] 1 nM, Kd 0.332 nM; read-out: AR Ki

Point of comparison: C[C@]12CCC(=O)C[C@@H]1CC[C@@H]1[C@@H]2CC[C@]2(C)[C@@H](OCCOCC(=O)N3CCN(C(=O)c4cc(Cc5n[nH]c(=O)c6ccccc56)ccc4F)CC3)CC[C@@H]12 [Compound 1.104, 4-(3-(4-(2-(2-((5S,8R,9S,10S,13S,14S,17S)-10,13-dimethyl-3-oxohexadeca hydro-1H-cyclopenta[a]phenanthren-17-yloxy)ethoxy)acetyl)piperazine-1-carbonyl)-4-fluorobenzyl)phthalazin-1(2H)-one], Ki 167 nM. Against it:
- C[C@]12CCC(=O)C[C@@H]1CC[C@@H]1[C@@H]2CC[C@@]2(C)[C@H]1CC[C@@]2(O)c1cn(CC(=O)N2CCN(C(=O)c3cc(Cc4n[nH]c(=O)c5ccccc45)ccc3F)CC2)nn1 [Compound 1.107, 4-(4-fluoro-3-(4-(2-(4-((5S,8R,9S,10S,13S,14S,17S)-17-hydroxy-10,13-dimethyl-3-oxohexadecahydro-1H-cyclopenta[a]phenanthren-17-yl)-1H-1,2,3-triazol-1-yl)acetyl)piperazine-1-carbonyl)benzyl)phthalazin-1(2H)-one] — higher, > 7470 nM
